Assay results published in patent US6570001B1, “Polynucleotides and their use for detecting resistance to streptogramin A or to streptogramin B and related compounds” (priority 1997, dated 2003).

Key:
[1] = tested on: S. aureus recipient RN4220 transformants carrying recombinant plasmid pIP1717; test: MICs by serial twofold dilutions in MHA, S. aureus RN4220 transformants carrying pIP1717 (vgaB); format: cell-based; conditions: S. aureus RN4220 transformants with pIP1717
Excerpt: First, the 2.4 kb HindIII-Haelll fragment of pIP1675, which contains only 10 nucleotide from vatB, was inserted into plasmid pOX300, and the recombinant plasmid, pIP1717 (FIG. 1B), was introduced by electroporation into the S. aureus recipient, RN4220 (Kreiswirth et al., 1983). Plasmid pOX300, also named pOX7, (Dyke and Curnock, 1989), is a hybrid of pUC18 and pEl94ts and replicates in E. coli where it confers resistance to ampicillin and to erythromycin, and in S. aureus where only resistance to erythromycin is expressed. The S. aureus transformants selected on 10 μg/ml erythromycin were resistant to streptogramin A and related compounds (PIIA MICs=8-16 μg/ml). Thus, the 2.4-kb HindIII-HaeIII insert of pIP1717 (FIG. 1B) probably carried a streptogramin A resistance gene and was sequenced. The nucleotide (nucleotide) sequence of this fragment was determined by the dideoxy method (Sanger et al., 1977) with the reagents and the procedure recommended by the suppliers of the T^7 sequencing kit (Pharmacia International). Arrows indicate the direction and extent of each dideoxy-sequencing reaction. (FIG. 1B).
(§1) Minimal inhibitory concentrations (MICs) of antibiotics were determined by serial twofold dilutions of antibiotics in MHA (Ericson H. M. and S. C. Sherris, ActaPathol. Microbiol. Scand., 1971, Suppl. 217:Section B).

[2] = tested on: S. aureus recipient strain RN4220 harboring pIP1714; test: Susceptibility of S. aureus RN4220 transformant harboring pIP1714 (vatC, vgbB); format: cell-based; conditions: RN4220 transformant harboring pIP1714, selected on 10 μg/ml pristinamycin IIA
Procedure: The strain BM10711 harbored several plasmids including pIP1714 (5 kb). This plasmid was isolated by electroporation in a S. aureus recipient strain, RN4220. The transformant, harboring pIP1714, was selected on BHIA containing 10 μg/ml pristinamycin IIA.
Susceptibility to antimicrobial agents was determined with a disk diffusion assay and commercially available disks (Diagnostic Pasteur). Additional disks prepared in our laboratory contained streptogramin A (20 μg) or streptogramin B (40 μg).
as §1

[3] = tested on: Staphylococcal strains resistant to streptogramins; conditions: staphylococci resistant to synergistic mixtures of A and B compounds / to A compounds (Allignet et al., 1996); cited from earlier work

Row | Molecule | resistance phenotype [1] | resistance phenotype [2] | MIC [3] [µg/mL]
1 | streptogramin A | resistant | conferred resistances | –
2 | streptogramin B | – | conferred resistances | –
3 | CC1=C\[C@@H](O)CC(=O)Cc2nc(co2)C(=O)N2CCC=C2C(=O)O[C@H](C(C)C)[C@H](C)/C=C/C(=O)NC\C=C\1 [PIIA, pristinamycin IIA] | – | – | ≥ 8
